PubChem BioAssay AID179 (DTP/NCI, 2004)
Calls of active or inactive are those of the source.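 Rule for the calls: active = compounds giving half or more protection of infected cells from virus-caused growth loss, again on retest; inactive = the rest.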

Test system: CEM cells HIV-1 protection, formazan growth assay
Assay: NCI AIDS Antiviral Assay
Conditions: for IC50: measured here: growth of uninfected CEM cells
How it was run: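 Protection of CEM cells against HIV-1 measured as cell growth via soluble formazan read-out, with five concentrations tested on both infected and uninfected cells; failure to protect may reflect toxicity.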

SMILES: C=C[C@]1(C)CC(=O)C(C(C)C=O)[C@]12C(=O)Oc1cccc(C)c1C2=O (stereo partly specified)
- EC50: > 200 µM
- IC50: 13.5 µM

SMILES: CC(=O)n1c2ccc(Br)cc2c2nc3ccccc3nc21
- EC50: > 200 µM
- IC50: > 200 µM

SMILES: CC(SCCCCCCCCCCSC(C)C(=O)O)C(=O)O (stereo unspecified)
- EC50: > 141 µM
- IC50: > 141 µM

SMILES: C[C@]12c3c4cc(NC(=O)C(=O)NCc5ccc(-c6ccccn6)nc5)cc3Oc3cc(NC(=O)C(=O)NCc5ccc(-c6ccccn6)nc5)cc(c31)OC1C=C(NC(=O)C(=O)NCc3ccc(-c5ccccn5)nc3)C=C(O4)C12 (stereo partly specified)
- EC50: > 100 µM
- IC50: 21.4 µM

SMILES: O=C1C2c3[nH]c4ccccc4c3C3CCCCC3C2C(=O)N1c1ccccc1 (stereo unspecified)
- outcome: inactive

SMILES: CC1(C)C(CBr)=[N+]([O-])C(C)(C)N1O
- EC50: > 200 µM
- IC50: 3.72 µM

SMILES: N#C/C=C(/NC(=O)Nc1ccccc1)N1CCCC1
- EC50: > 200 µM
- IC50: > 200 µM

SMILES: CNS(=O)(=O)c1ccccc1C(C)(O)c1ccccc1 (stereo unspecified)
- EC50: > 200 µM
- IC50: > 200 µM

SMILES: CC(C)(C)OC(=O)N/N=C(/N)Cc1ccc(Cl)cc1
- EC50: > 200 µM
- IC50: 162 µM

SMILES: O=C(CSc1nc(-c2ccccc2)c(-c2ccccc2)[nH]1)N/N=C/c1ccc([N+](=O)[O-])cc1
- EC50: > 21.9 µM
- IC50: 10 µM

SMILES: O=C(O)C/C=C(\C(=O)O)N1C(=O)c2ccccc2C1=O
- outcome: inactive

SMILES: O=c1cc(/C=C/c2ccccc2)c2ccc(O/C(=C\c3ccccc3)c3nc4ccccc4c(=O)o3)cc2o1
- outcome: inactive

SMILES: CCc1ccc2nccc(NCCCN(C)C)c2c1[N+](=O)[O-]
- EC50: > 200 µM
- IC50: 87.1 µM

SMILES: C/C(CN1C(=O)c2ccccc2C1=O)=N\NS(=O)(=O)c1cccc([N+](=O)[O-])c1
- EC50: > 617 µM
- IC50: > 617 µM

SMILES: CCOC(CNCCC(=O)OC)OCC
- outcome: inactive

SMILES: OC[C@@H]1C(O)[C@H](O)[C@H]2C(O)CCN12 (stereo partly specified)
- EC50: > 1320 µM
- IC50: > 1320 µM

SMILES: O=C1c2ccccc2OP(=O)(OCC(F)(F)F)OC1(C(F)(F)F)C(F)(F)F (stereo unspecified)
- EC50: > 575 µM
- IC50: 126 µM

SMILES: Cc1nc2cc([N+](=O)[O-])ccc2c(NCCCN(C)C)c1C
- EC50: > 200 µM
- IC50: 3.55 µM

SMILES: Cc1ccc(C)n1-c1ccccc1C1C=CN(C(=O)OC(C)(C)C)C=C1
- EC50: > 200 µM
- IC50: 30.2 µM

SMILES: O=c1[nH]c2ncccc2c(=O)n1O
- EC50: > 200 µM
- IC50: 34.7 µM

SMILES: COC(=O)C(C)(C)C(OP1(=S)OCCN1C)=C(C)C (stereo unspecified)
- EC50: > 117 µM
- IC50: > 117 µM

SMILES: Oc1ccc(C2O[C@H](c3ccc(O)cc3)C(c3cc(O)cc(O)c3)C2c2cc(O)cc3c2C(c2cc(O)cc4c2C(c2cc(O)cc(O)c2)[C@H](c2ccc(O)cc2)O4)[C@@H](c2ccc(O)cc2)O3)cc1 (stereo partly specified)
- EC50: 36.3 µM
- IC50: 214 µM

SMILES: CC(C)=CC(=O)CC(=O)C(=O)Nc1ccc(Cl)c(Cl)c1
- EC50: > 417 µM
- IC50: > 417 µM

SMILES: N#Cc1cccc(N(C(=O)c2ccccc2)c2ccccc2)n1
- EC50: > 200 µM
- IC50: 112 µM

SMILES: N#CCCN(CCC#N)c1ccc(/C=C(/NC(=O)c2cc([N+](=O)[O-])ccc2Cl)C(=O)N=[N+]=[N-])cc1
- EC50: > 20.4 µM
- IC50: > 20.4 µM

SMILES: O=C1CSC(c2ccccc2)N1c1ccc(-c2ccc(-n3c(-c4ccccc4)nc4ccccc4c3=O)cc2)cc1 (stereo unspecified)
- EC50: > 200 µM
- IC50: 44.7 µM

SMILES: CC(=O)N(O)c1ccccc1-c1ccccc1
- EC50: > 200 µM
- IC50: 102 µM

SMILES: Cn1c2ccccc2n2c(=O)c(-c3ccc(Cl)cc3)nnc12
- EC50: > 200 µM
- IC50: > 200 µM

SMILES: O=C(O)c1ccccc1SCc1cccc2c(=O)c3ccc(Cl)cc3oc12
- EC50: 10.2 µM
- IC50: 30.2 µM

SMILES: COC(=O)CC1(C(=O)OC)Nc2cc(Cl)c(Cl)cc2S(=O)(=O)N1O (stereo unspecified)
- EC50: 69.2 µM
- IC50: 91.2 µM

SMILES: COc1cc(NS(C)(=O)=O)ccc1Nc1c2ccccc2nc2ccccc12
- outcome: inactive

SMILES: NC(=S)/N=C/c1c(O)c2ccccc2oc1=O
- EC50: > 55 µM
- IC50: > 55 µM

SMILES: NNC(=Nc1ccccc1)SCc1ccccc1
- outcome: inactive

SMILES: O=C1C=CC2=C3c4cc(O)c(O)cc4CC3(O)COC2=C1O (stereo unspecified)
- EC50: > 45.7 µM
- IC50: 40.7 µM

SMILES: COc1cc(NC=C2C(=O)OC(C)(C)OC2=O)c(OC)c(C)c1OC
- EC50: > 200 µM
- IC50: > 200 µM

SMILES: C=C1C2CCC3(CCC4C5(C)CCCC4(CN(CC)C5)C3C2)C1O (stereo unspecified)
- outcome: inactive

SMILES: COc1ccc(C(c2c(O)c3ccccc3n(-c3ccccc3)c2=O)c2c(O)c3ccccc3n(-c3ccccc3)c2=O)cc1
- EC50: > 8.71 µM
- IC50: > 8.71 µM

SMILES: C=[CH][Sn]([CH]=C)([S]c1cccc2cccnc12)[S]c1cccc2cccnc12
- outcome: inactive

SMILES: COc1ccc2c(c1)C1Oc3ccccc3CC1CO2 (stereo unspecified)
- EC50: > 200 µM
- IC50: 52.5 µM

SMILES: CC#CCCC1CCCCN(C(=O)OC(C)(C)C)C1OCC (stereo unspecified)
- EC50: > 115 µM
- IC50: 58.9 µM

SMILES: CC1C=C[C@H](Sc2ccccc2)CC[C@@]1(C)O (stereo partly specified)
- EC50: > 251 µM
- IC50: 22.4 µM

SMILES: C=CC(=O)N1C/C(=C\c2ccc([N+](=O)[O-])cc2)C(=O)/C(=C/c2ccc([N+](=O)[O-])cc2)C1
- EC50: > 200 µM
- IC50: 0.0631 µM
